Laboratory results taken from ChEMBL document CHEMBL4627278, “Discovery of 2-aminoisobutyric acid ethyl ester (AIBEE) phosphoramidate prodrugs for delivering nucleoside HCV NS5B polymerase inhibitors” (Bioorg Med Chem Lett, 2020).
Converted amounts (≈) assume the structure as drawn.

Legend:
[1] = Prodrug conversion in human hepatocytes assessed as nucleotide triphosphate level at 100 uM after 4 hrs; format: ADME, cell-based, Hepatocyte
[2] = Half life in human hepatocytes; format: ADME, cell-based, Hepatocyte
[3] = Stability in human plasma assessed as parent compound remaining after 4 hrs; format: ADME, cell-free; conditions: read-out: Stability
[4] = Prodrug conversion in dog liver assessed as 1-((2R,3R,4R,5R)-3-bromo-3-chloro-4-hydroxy-5-(hydroxymethyl)tetrahydrofuran-2-yl)pyrimidine-2,4(1H,3H)-dione level at 5 mg/kg, po after 4 hrs; format: ADME, organism-based, Canis lupus familiaris; conditions: in vivo
[5] = Prodrug conversion in dog liver assessed as nucleotide triphosphate level at 5 mg/kg, po measured after 24 hrs; format: ADME, organism-based, Canis lupus familiaris; conditions: in vivo
[6] = Stability in dog plasma assessed as parent compound remaining after 4 hrs; format: ADME, cell-free, Canis lupus familiaris; conditions: read-out: Stability
[7] = Prodrug conversion in dog liver assessed as 1-((2R,3R,4R,5R)-3-bromo-3-chloro-4-hydroxy-5-(hydroxymethyl)tetrahydrofuran-2-yl)pyrimidine-2,4(1H,3H)-dione level at 5 mg/kg, po after 24 hrs; format: ADME, organism-based, Canis lupus familiaris; conditions: in vivo
[8] = Prodrug conversion in dog liver assessed as nucleotide triphosphate level at 5 mg/kg, po after 4 hrs; format: ADME, organism-based, Canis lupus familiaris; conditions: in vivo
[9] = Aqueous solubility of compound at pH 7.4; format: physicochemical; conditions: buffer
[10] = Prodrug conversion in human hepatocytes assessed as nucleotide triphosphate level at 100 uM incubated for 4 hrs followed by compound washout and further incubated in fresh media for 24 hrs; format: ADME, cell-based, Hepatocyte
[11] = Intrinsic clearance in human hepatocytes; format: ADME, cell-based, Hepatocyte; conditions: read-out: CLH (converted)
[12] = Prodrug conversion in dog liver assessed as 2-((((2R,3R,4R,5R)-4-bromo-4-chloro-5-(2,4-dioxo-3,4-dihydropyrimidin-1(2H)-yl)-3-hydroxytetrahydrofuran-2-yl)methoxy)(hydroxy)phosphorylamino)-2-methylpropanoic acid level at 5 mg/kg, po after 4 hrs; format: ADME, organism-based, Canis lupus familiaris; conditions: in vivo
[13] = Prodrug conversion in dog liver assessed as (2S)-2-((((2R,3R,4R,5R)-4-bromo-4-chloro-5-(2,4-dioxo-3,4-dihydropyrimidin-1(2H)-yl)-3-hydroxytetrahydrofuran-2-yl)methoxy)(hydroxy)phosphorylamino)propanoic acid level at 5 mg/kg, po after 4 hrs; format: ADME, organism-based, Canis lupus familiaris; conditions: in vivo
[14] = Prodrug conversion in dog liver assessed as 2-((((2R,3R,4R,5R)-4-bromo-4-chloro-5-(2,4-dioxo-3,4-dihydropyrimidin-1(2H)-yl)-3-hydroxytetrahydrofuran-2-yl)methoxy)(hydroxy)phosphorylamino)-2-methylpropanoic acid level at 5 mg/kg, po after 24 hrs; format: ADME, organism-based, Canis lupus familiaris; conditions: in vivo
[15] = Prodrug conversion in dog liver assessed as (2S)-2-((((2R,3R,4R,5R)-4-bromo-4-chloro-5-(2,4-dioxo-3,4-dihydropyrimidin-1(2H)-yl)-3-hydroxytetrahydrofuran-2-yl)methoxy)(hydroxy)phosphorylamino)propanoic acid level at 5 mg/kg, po after 24 hrs; format: ADME, organism-based, Canis lupus familiaris; conditions: in vivo
[16] = Prodrug conversion in dog liver assessed as nucleotide triphosphate level at 5 mg/kg, po co-dosed with 5 mg/kg sofosbuvir after 24 hrs; format: ADME, organism-based, Canis lupus familiaris; conditions: in vivo
[17] = Prodrug conversion in dog liver assessed as nucleotide triphosphate level at 5 mg/kg, po co-dosed with 5 mg/kg sofosbuvir after 4 hrs; format: ADME, organism-based, Canis lupus familiaris; conditions: in vivo
[18] = Lipophilicity, log D of compound; format: physicochemical; conditions: octanol/water
[19] = Cytotoxicity against human HuH7 cells assessed as reduction in cell viability; format: cell-based, Huh-7; conditions: read-out: TD50 (the source's name)

Row | SMILES | Drug metabolism [1] | half-life [2] | remaining at 4 h [3] | Drug metabolism [4] | Drug metabolism [5] | remaining at 4 h [6] | Drug metabolism [7] | Drug metabolism [8] | solubility [9] | Drug metabolism [10] | CLint scaled [11] | Drug metabolism [12] | Drug metabolism [13] | Drug metabolism [14] | Drug metabolism [15] | Drug metabolism [16] | Drug metabolism [17] | logD [18] | CC50 [19]
1 | COCC(C)OC(=O)[C@H](C)NP(=O)(OC[C@H]1O[C@@H](n2ccc(=O)[nH]c2=O)[C@](Cl)(Br)[C@@H]1O)Oc1ccccc1 (some centres not stated) | 465 µM | > 30 min | 87% | 0.187 µg/g | 0.188 µg/g | 84% | 0.038 µg/g | 0.329 µg/g | > 200 µM | 31 µM | 242 mL/min/kg | – | – | – | – | – | – | – | –
2 | CC(C)OC(=O)[C@H](C)N[P@](=O)(OC[C@H]1O[C@@H](n2ccc(=O)[nH]c2=O)[C@](Cl)(Br)[C@@H]1OC(=O)[C@@H](N)C(C)C)Oc1ccccc1 | 169 µM | > 30 min | – | 0.341 µg/g | 0.409 µg/g | – | 0.029 µg/g | 0.828 µg/g | > 200 µM | 24 µM | – | 0.359 µg/g | 0.359 µg/g | 0.006 µg/g | 0.006 µg/g | 2.89 µg/g | 3.1 µg/g | – | –
3 | CC(C)OC(=O)[C@H](C)N[P@](=O)(OC[C@H]1O[C@@H](n2ccc(=O)[nH]c2=O)[C@](Cl)(Br)[C@@H]1O)Oc1ccccc1 | 110 µM | 15 min | 92% | 1.469 µg/g | 0.049 µg/g | 92% | 0.011 µg/g | 0.088 µg/g | 23 µM (≈ 14 µg/mL) | 22 µM | 273 mL/min/kg | 0.066 µg/g | 0.066 µg/g | 0.006 µg/g | 0.006 µg/g | 1.02 µg/g | 1.59 µg/g | 3.51 | 62 µM
4 | CC(C)OC(=O)C(C)(C)NP(=O)(OC[C@H]1O[C@@H](n2ccc(=O)[nH]c2=O)[C@](Cl)(Br)[C@@H]1O)Oc1ccccc1 (some centres not stated) | 157 µM | > 30 min | 109% | 0.252 µg/g | 0.244 µg/g | 104% | 0.04 µg/g | 0.713 µg/g | > 200 µM | 40 µM | 192 mL/min/kg | – | – | – | – | 3.43 µg/g | 4.2 µg/g | – | –
5 | CC(C)OC(=O)[C@H](C)N[P@](=O)(OC[C@H]1O[C@@H](n2ccc(=O)[nH]c2=O)[C@](C)(F)[C@@H]1O)Oc1ccccc1 [SOFOSBUVIR] | 97 µM | 120 min | – | – | – | – | – | – | > 200 µM | 122 µM | 71.7 mL/min/kg | – | – | – | – | – | – | 3.02 | > 100 µM
6 | CC(C)C(=O)OC[C@H](C)NP(=O)(OC[C@H]1O[C@@H](n2ccc(=O)[nH]c2=O)[C@](Cl)(Br)[C@@H]1O)Oc1ccccc1 (some centres not stated) | 2377 µM | > 30 min | 0% | 0.177 µg/g | 0.037 µg/g | 54% | 0.006 µg/g | 0.252 µg/g | > 200 µM | 32 µM | – | 0.151 µg/g | 0.151 µg/g | < 0.005 µg/g | < 0.005 µg/g | 1.12 µg/g | 3.04 µg/g | – | –
7 | CCOC(=O)C(C)(C)NP(=O)(OC[C@H]1O[C@@H](n2ccc(=O)[nH]c2=O)[C@](Cl)(Br)[C@@H]1O)Oc1ccccc1 (some centres not stated) | 2114 µM | > 30 min | 103% | 1.335 µg/g | 4.56 µg/g | 111% | 0.192 µg/g | 14.73 µg/g | > 200 µM | 43 µM | 685 mL/min/kg | 0.232 µg/g | 0.232 µg/g | 0.065 µg/g | 0.065 µg/g | 3.47 µg/g | 4.02 µg/g | – | –
8 | CC(C)OC(=O)[C@H](C)N[P@@](=O)(OC[C@H]1O[C@@H](n2ccc(=O)[nH]c2=O)[C@](Cl)(Br)[C@@H]1O)Oc1ccccc1 | 107 µM | > 30 min | – | 0.501 µg/g | 0.036 µg/g | – | 0.009 µg/g | 0.143 µg/g | > 200 µM | 24 µM | 202 mL/min/kg | 0.644 µg/g | 0.644 µg/g | < 0.005 µg/g | < 0.005 µg/g | 1.26 µg/g | 1.76 µg/g | – | –
9 | CC(C)OC(=O)[C@H](C)N[P@](=O)(OC[C@H]1O[C@@H](n2ccc(=O)[nH]c2=O)[C@](Cl)(Br)[C@@H]1O)Oc1cccc2ccccc12 | 81 µM | > 30 min | – | – | – | – | – | – | 17 µM (≈ 11.2 µg/mL) | 9 µM | 575 mL/min/kg | – | – | – | – | – | – | – | –
10 | COc1cccc(O[P@](=O)(N[C@@H](C)C(=O)OC(C)C)OC[C@H]2O[C@@H](n3ccc(=O)[nH]c3=O)[C@](Cl)(Br)[C@@H]2O)c1 | 35 µM | > 30 min | – | – | – | – | – | – | 20 µM (≈ 12.8 µg/mL) | 14 µM | 335 mL/min/kg | – | – | – | – | – | – | – | –
11 | CCOC(=O)[C@H](C)NP(=O)(OC[C@H]1O[C@@H](n2ccc(=O)[nH]c2=O)[C@](Cl)(Br)[C@@H]1O)Oc1ccccc1 (some centres not stated) | – | – | 86% | 0.821 µg/g | 0.629 µg/g | 93% | < 0.025 µg/g | 1.24 µg/g | – | – | – | 0.357 µg/g | 0.357 µg/g | 0.007 µg/g | 0.007 µg/g | 3.18 µg/g | 3.87 µg/g | – | –
12 | CCOC(=O)[C@H](C)N[P@@](=O)(OC[C@H]1O[C@@H](n2ccc(=O)[nH]c2=O)[C@](Cl)(Br)[C@@H]1O)Oc1ccccc1 | 738 µM | > 30 min | – | – | – | – | – | – | – | 39 µM | 185 mL/min/kg | – | – | – | – | – | – | – | –
13 | COCC(C)C(=O)OC[C@H](C)NP(=O)(OC[C@H]1O[C@@H](n2ccc(=O)[nH]c2=O)[C@](Cl)(Br)[C@@H]1O)Oc1ccccc1 (some centres not stated) | 188 µM | > 30 min | – | – | – | – | – | – | – | 24 µM | 282 mL/min/kg | – | – | – | – | – | – | – | –
14 | CC(C)OC(=O)[C@H](C)N[P@](=O)(OC[C@H]1O[C@@H](n2ccc(=O)[nH]c2=O)[C@](Cl)(Br)[C@@H]1OC(=O)[C@@H](N)C(C)C)Oc1cccc2ccccc12 | – | > 30 min | – | – | – | – | – | – | 4 µM (≈ 3.04 µg/mL) | – | – | – | – | – | – | – | – | – | –
15 | CCOC(=O)[C@H](C)N[P@](=O)(OC[C@H]1O[C@@H](n2ccc(=O)[nH]c2=O)[C@](Cl)(Br)[C@@H]1O)Oc1ccccc1 | 90 µM | > 30 min | – | – | – | – | – | – | – | 18 µM | 152 mL/min/kg | – | – | – | – | – | – | – | –
16 | COCC(=O)OC[C@H](C)NP(=O)(OC[C@H]1O[C@@H](n2ccc(=O)[nH]c2=O)[C@](Cl)(Br)[C@@H]1O)Oc1ccccc1 (some centres not stated) | 120 µM | > 30 min | – | – | – | – | – | – | – | 16 µM | 223 mL/min/kg | – | – | – | – | – | – | – | –
